Reference: PubChem BioAssay AID179 (DTP/NCI, 2004)
Calls of active or inactive are those of the source.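 How the source made its calls: active means compounds giving half or more protection of infected cells from virus-caused growth loss, again on retest; inactive means the rest.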

Tested on: CEM cells HIV-1 protection, formazan growth assay
Test: NCI AIDS Antiviral Assay
Details: for IC50: measured here: growth of uninfected CEM cells
Procedure, shortened: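 Protection of CEM cells against HIV-1 was scored from cell growth (soluble formazan) across five concentrations, with parallel uninfected cells. Lack of protection may reflect toxicity.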

Structure (SMILES)	outcome	EC50 [µM]	IC50 [µM]
COc1c(OC2OC(CO)C(O)C(O)C2O)cc2c(c1OC)-c1ccc(OC)c(=O)cc1[C@@H](NC(C)=O)CC2 (some centres not stated)	inactive		
CCn1c2ccc(C(=O)CCCN(C)C)cc2c2cc(C(=O)CCCN(C)C)ccc21		> 380	0.123
CC(Oc1ccc2cc(C(=O)c3ccccc3)c(=O)oc2c1)C(=O)O (configuration not stated)	inactive		
CC1(C)CN(C(=O)OCc2ccccc2)[C@@H]2N1C(=O)[C@@]2(C)OCCCO[C@@]1(C)C(=O)N2[C@@H]1N(C(=O)OCc1ccccc1)CC2(C)C		> 200	26.9
O=[N+]([O-])c1ccc(CN=C2NNS(=O)(=O)c3ccccc32)cc1		> 15.8	> 15.8
O=C1c2cccc3c([N+](=O)[O-])ccc(c23)C(=O)N1CC1CCCO1 (configuration not stated)		> 2	0.195
COc1c(Cl)cc(C(=CCNC(=O)C[C@H]2CC[C@@]3(C)[C@@H](CC[C@@H]4[C@@H]3CC[C@]3(C)[C@@H](CC(=O)NCC=C(c5cc(Cl)c(OC)c(C(=O)O)c5)c5cc(Cl)c(OC)c(C(=O)O)c5)CC[C@@H]43)C2)c2cc(Cl)c(OC)c(C(=O)O)c2)cc1C(=O)O		42.7	186
COc1ccccc1-c1cc(=O)c2cc(C)c(C)c(C(=O)O)c2o1	inactive		
CC1(C)OC2COC(=O)CC2O1 (configuration not stated)		> 200	> 200
CC(C)N=c1sc(-c2ccccc2)c(C#N)c(=O)n1C(C)C		> 75.9	55
CN(c1ccccc1)C(c1ccccc1)C(O)c1ccccc1 (configuration not stated)	inactive		
CC1=NN(C(=O)CC(=O)Nc2ccc(Cl)cc2)C(=O)C1N=Nc1ccc(S(=O)(=O)c2ccc(N=NC3C(=O)N(C(=O)CC(=O)Nc4ccc(Cl)cc4)N=C3C)cc2)cc1 (configuration not stated)		> 50.1	> 50.1
CC(=O)Oc1cc(OC(C)=O)c2c(=O)c(OC(C)=O)c(-c3ccc(OC(C)=O)c(OC(C)=O)c3)oc2c1		> 200	9.33
COC(=O)N/N=C(\C)C(CN1CCOCC1)C(c1ccccc1)c1cc2ccccc2oc1=O (configuration not stated)		> 83.2	61.7
CC/C(Cl)=N\OC(=O)Nc1ccc(F)cc1F		> 20	3.47
O=[N+]([O-])/C(Cl)=C(/C(Cl)=C(Cl)Cl)N1CCCCC1		> 200	12.3
CN(c1ccccc1)S(=O)(=O)c1ccccc1[N+](=O)[O-]		> 200	64.6
CCOC(=O)c1cc(Sc2ccc(N)c(C(=O)OCC)c2)ccc1N		> 200	15.5
O=C1C(=O)N(C2CCCCC2)C(=S)N1C1CCCCC1		> 200	> 200
CCN1Cc2c(/C=C/c3ccccc3)nc3ccc(OC)cc3c2N(c2cccc(Cl)c2)C1		> 41.7	7.76
C[C@H]1Oc2cc(O)c3ccc(=O)oc3c2C(=O)[C@@H]1C		> 200	17
COc1cc(O)c(C(C)=O)c(O)c1		> 200	19.1
c1cncc(-c2ncc3cccnc3n2)c1		> 100	> 100

Structure (SMILES)	outcome	EC50 [µM]	IC50 [µM]
CC1=NN(c2nc(N)nc(C(C)Sc3cc(Cl)c(C)cc3S(N)(=O)=O)n2)C(C)(C)C1 (configuration not stated)		> 200	42.7
CN(C)c1ccc(C(=CC=C2C(=O)NC(=O)NC2=O)c2ccc(N(C)C)cc2)cc1		> 4.9	> 4.9
COC1OC(CS(=O)(=O)O)C(O)C(O)C1O (configuration not stated)	inactive		
Clc1ccc(C2=NON(c3ncccn3)C3N=CC=CN23)cc1 (configuration not stated)		> 15.8	> 15.8
O=c1oc2ccccc2c(O)c1Cc1ccccc1Cc1c(O)c2ccccc2oc1=O		> 200	102
CN(C)c1ccc(/C=C(/C#N)c2ccc(Cl)cc2)cc1		> 100	1.23
COC(=O)c1ccccc1/C=C1/Cc2cccc(C)c2C1=O		> 200	> 200
CCSc1ccc([N+](=O)[O-])c2c(SCC)c3ccccc3nc12	inactive		
CCN(CC)c1ccc2cc(-n3nnc4ccccc43)c(=O)oc2c1		> 8.13	> 8.13
COC(=O)/C(=N/NC(N)=O)C(C(=O)C(=O)Nc1ccc(C)cc1)c1nc2ccc(C(=O)c3ccccc3)cc2[nH]c1=O (configuration not stated)		> 33.1	> 33.1
C[s+]1c2ccccc2c2ccccc21		> 22.9	18.6
O=C(Nn1c(-c2ccccc2)nc2ccccc2c1=O)c1ccc(CS)cc1	inactive		
CC(C)(C)c1ccc(-c2nc3ccc(Cl)cc3c(=O)o2)cc1		> 200	9.33
CC(=O)NC1C(OCc2ccccc2)OC(CO)C(O)C1OC(C)C(=O)NC(C)C(=O)NC(CCC(=O)NCCCCNc1c2ccccc2nc2cccc([N+](=O)[O-])c12)C(N)=O (configuration not stated)		> 200	0.0631
CC(C)(C[NH-])C[NH-].[Cl][Pt+2][Cl]		> 676	2.04
NS(=O)(=O)c1cc2c(cc1Cl)NC=NS2(=O)=O		> 851	> 851
CCCCCCCCCCCCCC(=O)NCC(OCC)OCC	inactive		
Cc1nc(N)nc2c1CCC(=O)N2		> 56.2	> 56.2
COC(=O)N(C[C@@H]1C=CCCC1)c1ccccc1I		> 14.1	> 14.1
Cc1cn(C2C=CC(COP(=O)(OCC(=O)c3ccccc3)OCC(=O)c3ccccc3)O2)c(=O)[nH]c1=O (configuration not stated)		0.851	110
O=C(C[N+]12CCC(O)C1C(CO)CC2)c1ccc(Br)cc1 (configuration not stated)		> 575	> 575
N=C([Se])c1ncn(C2OC(CO)C(O)C2O)c1N (configuration not stated)		> 389	30.2
COc1cc(N2C(=O)C(=O)C3(CCCCC3)C2=O)cc(OC)c1OC		> 200	> 200

Structure (SMILES)	outcome	EC50 [µM]	IC50 [µM]
CC(C)N(C(=O)C12C3C4C1C1C4(C#N)C3C12C#N)C(C)C (configuration not stated)		> 129	> 129
COc1ccc2nc3cc(Cl)ccc3c(NC(C)CCCN(C)C)c2n1 (configuration not stated)		> 2	1.02
CC1CN=C(Nc2cccc(F)c2)S1 (configuration not stated)		0.191	> 200
N#Cc1nc(COCCOCc2ccc(F)cc2)oc1N		> 200	> 200
O=Cc1cc(C(=O)OCc2ccccc2)n(S(=O)(=O)c2ccccc2)c1		> 200	17.4
COc1cc(C(=O)OC2CC(C)=CC[C@@]3(C)CC[C@](O)(C(C)C)C23)ccc1O (some centres not stated)		> 200	8.51
CCOC(=O)NNC(=O)C1CSC(c2ccccc2)N1C(C)=O (configuration not stated)		> 200	> 200
Cc1ccc(S(=O)(=O)c2ccc(NC(=O)SCCC(=O)O)cc2)cc1	inactive		
CN1C/C(=C\c2cccs2)C(O)/C(=C/c2cccs2)C1 (configuration not stated)		> 200	115
CC(=O)OCC1OC(n2c(C#N)cc(=O)[nH]c2=O)CC1OC(C)=O (configuration not stated)		> 200	57.5
Oc1cc2ccc3c(c2cc1O)CCc1cn[nH]c1-3		> 10.7	> 10.7
COC(=O)C(=O)/C=C(/O)c1ccc(OC)cc1		> 200	> 200
Cc1ccc2nc(CN3CCCC(O)C3)cc(=O)n2c1 (configuration not stated)		> 200	> 200
CC(C)=CCc1cc(C2CC(=O)c3c(O)cc(O)cc3O2)cc(CC=C(C)C)c1O (configuration not stated)	inactive		
COc1nc(C(=O)NNC(=O)c2nc(OC)c3ccccc3c2-c2ccccc2)c(-c2ccccc2)c2ccccc12	inactive		
Cc1ccc2c(c1)Nc1ccccc1C(=O)N2		> 200	> 200
CCc1ccc(N=Cc2cc(OC)c(OC)c(OC)c2)cc1		> 33.1	> 33.1
CC(=O)c1c(-c2ccco2)c(C#N)c(=S)n(C2OC(CO)C(O)C(O)C2O)c1C (configuration not stated)		> 200	87.1
CC(C)(C)N=C(N)NC#N		> 200	> 200
CC(C)=CCC[C@@H](C)C1=C(O)C(Nc2ccccc2Br)=C(C)C(=O)C1=O		> 100	8.13
O=C(Nc1cc([N+](=O)[O-])cc([N+](=O)[O-])c1)OC1C2CCC1C1OC1C2 (configuration not stated)		> 14.8	> 14.8
C[N+]12CN3CN(C1)CP(=O)(C3)C2		> 794	115
CN(CCO)c1nc2c(c(=O)[nH]1)CNCC2		> 288	> 288

Structure (SMILES)	outcome	EC50 [µM]	IC50 [µM]
C=C1CC[C@@](C)(c2ccc(CO)cc2)C1C (some centres not stated)	inactive		
CC1(C)CC(=O)C2=C(C1)S/C(=C1/SC3=C(S1)C(=O)CC(C)(C)C3)S2		> 6.92	> 6.92
O=P1(NC2CCCC2)OCC2(CO1)COP(=O)(NC1CCCC1)OC2 (configuration not stated)		> 200	> 200
Cc1cc(C)c(C(=O)c2c(C)cccc2C(=O)O)c(C)c1		> 200	> 200
c1ccc(-c2cnc3cccnc3n2)cc1		> 200	174
CC(=O)OC1C2CCC1C1C2C2(Cl)C(Cl)=C(Cl)C1(Cl)C2(Cl)Cl (configuration not stated)	inactive		
ClCCC[Si]12OCCN(CCO1)CCO2	inactive		
COc1ccc(CN2COc3c(ccc4ccccc34)C2)cc1		> 200	10.2
COC(=O)C1(C(=O)OC)C2=Nc3ccccc3[C@@]23CCN(Cc2ccccc2)C3C[C@H]1c1ccoc1 (some centres not stated)		> 36.3	21.4
C[S+](C)c1ccc(Cl)cc1		> 871	69.2
CCN(CC)CSc1nc2ccccc2o1	inactive		
Cc1cc(=O)oc2cc(OCc3nc4ccccc4c(=O)n3-c3ccccc3)ccc12		> 43.7	> 43.7
Nc1c(Cl)ncnc1NCCO		> 200	> 200
COc1nc(N)c(N(C(C)=O)C(C)=O)c(=O)[nH]1	inactive		
CCN(CC)C(=O)CC12CCCCC1=Nc1ccccc12 (configuration not stated)		> 871	550
CC1=N/C(=C\c2ccc(-c3ccccc3)cc2)C(=O)O1		> 20	> 20
CC1(CCCC2(C)CCNC2=O)OCCO1 (configuration not stated)		> 200	> 200
CCCC1=C(OC)C(=O)c2c(C)cc(Cl)nc2C1=O		> 200	4.07
CCOC(=O)c1sc2nc(SC)nc(N3CCCCC3)c2c1N		> 100	> 100
CC(=Nc1ccccc1C(=O)[O-])c1c([O-])ccc2c(C)cc(=O)oc12.[Co+2].[OH3+].[OH3+].[OH3+]		> 3.24	> 3.24
